US7429579B2, “Tetrahydrobenzazepine derivatives useful as modulators of dopamine D3 receptors (antipsychotic agents)” (SmithKline Beecham, PLC, priority 2000, dated 2008)
Structures can show the parent of a compound that is named as a salt.

Target: T1, dopamine D3 receptor (Homo sapiens, UniProt P35462)
T1 construct: expressed in transfected cells; host or cells: CHO cells (crude cell membranes)
Assay: Binding experiments on cloned dopamine receptors: displacement of [125I]-Iodosulpride
Details: cloned human D3 receptor expressed in CHO cells, [125I]-Iodosulpride displacement; pKi accurate to about ±0.2-0.3
Procedure: Binding Experiments on Cloned Dopamine (e.g. D2, D3 and D4) Receptors
Cultures were grown as monolayers or in suspension in standard cell culture media. Cells were recovered by scraping (from monolayers) or by centrifugation (from suspension cultures), and were washed two or three times by suspension in phosphate buffered saline followed by collection by centrifugation. Cell pellets were stored frozen at −80° C. Crude cell membranes were prepared by homogenisation followed by high-speed centrifugation, and characterisation of cloned receptors achieved by radioligand binding.
Preparation of Cho Cell Membranes: Cell Pellets were Gently Thawed at Room temperature, and resuspended in about 20 volumes of ice-cold Extraction buffer; 5 mM EDTA, 50 mM Trizma pre-set crystals (pH7.4@37° C.), 1 mM MgCl2, 5 mM KCl and 120 mM NaCl. The suspension was homogenised using an Ultra-Turrax at full speed for 15 seconds. The homogenate was centrifuged at 18,000 r.p.m for 15 min at 4° C. in a Sorvall RC5C centrifuge. Supernatant was discarded, and homogenate re-suspended in extraction buffer then centrifugation was repeated. The final pellet was resuspended in 50 mM Trizma pre-set crystals (pH 7.4 @ 37° C.) and stored in 1 ml aliquot tubes at −80° C. (D2=3.0E+08 cells, D3=7.0E+07 cells and D4=1.0E+08 cells).
The total volume is 0.2 ml and incubated in a water bath at 37° C. for 40 minutes. Following incubation, samples were filtered onto GF/B Unifilters using a Can berra Packard Filtermate, and washed four times with ice-cold 50 mM Trizma pre-set crystals (pH 7.4 @ 37° C.). The radioactivity on the filters was measured using a Canberra Packard Topcount Scintillation counter. […] For competition curves, 10 serial log concentrations of competing cold drug were used (Dilution range: 10 μM-10 pM). Competition curves were analysed using Inflexion, an iterative curve fitting programme in Excel. Results were expressed as pKi values where pKi=−log 10 [Ki].

T1 sequence (P35462 whole entry): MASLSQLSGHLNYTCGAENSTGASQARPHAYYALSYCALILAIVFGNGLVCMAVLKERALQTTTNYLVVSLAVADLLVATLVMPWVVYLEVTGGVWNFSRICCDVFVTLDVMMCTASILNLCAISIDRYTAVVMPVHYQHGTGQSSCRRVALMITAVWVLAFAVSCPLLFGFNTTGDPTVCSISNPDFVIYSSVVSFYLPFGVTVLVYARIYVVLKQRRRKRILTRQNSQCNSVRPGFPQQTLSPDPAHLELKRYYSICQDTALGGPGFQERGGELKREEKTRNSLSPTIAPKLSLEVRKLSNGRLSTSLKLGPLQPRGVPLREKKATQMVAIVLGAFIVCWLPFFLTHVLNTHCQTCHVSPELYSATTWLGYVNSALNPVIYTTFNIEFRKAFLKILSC

Row | SMILES | Ki [nM]
1 | Cc1cc(-c2ccc3c(c2)CCN(CCCCSc2nnc(-c4ccc5ncccc5c4)n2C)CC3)no1 [Example 176, 7-(5-Methyl-3-isoxazolyl)-3-(4-{[4-methyl-5-(6-quinolinyl)-4H-1,2,4-triazol-3-yl]thio}butyl)-2,3,4,5-tetrahydro-1H-3-benzazepine] | 0.316 to 10
2 | CCS(=O)(=O)c1ccc2c(c1)CCN(CCCSc1nnc(-c3cc4ccccc4o3)n1C)CC2 [Example 95, 3-(3-{[5-(1-benzofuran-2-yl)-4-methyl-4H-1,2,4-triazol-3-yl]thio}propyl)-7-(ethylsulfonyl)-2,3,4,5-tetrahydro-1H-3-benzazepine] | 0.316 to 10
3 | CCS(=O)(=O)c1ccc2c(c1)CCN(CCCSc1nnc(-c3cc4ccccc4[nH]3)n1C)CC2 [Example 93, 7-(ethylsulfonyl)-3-(3-{[5-(1H-indol-2-yl)-4-methyl-4H-1,2,4-triazol-3-yl]thio}propyl)-2,3,4,5-tetrahydro-1H-3-benzazepine] | 0.316 to 10
4 | Cc1ccc2cc(-c3nnc(SCCCN4CCc5ccc(-c6ncc(C)o6)cc5CC4)n3C)ccc2n1 [Example 168, 3-(3-{[4-methyl-5-(2-methyl-6-quinolinyl)-4H-1,2,4-triazol-3-yl]thio}propyl)-7-(5-methyl-1,3-oxazol-2-yl)-2,3,4,5-tetrahydro-1H-3-benzazepine] | 0.316 to 10
5 | Cn1c(SCCCN2CCc3ccc(S(C)(=O)=O)cc3CC2)nnc1-c1ccc2c(ccn2C)c1 [Example 74, 3-(3-{[4-methyl-5-(1-methyl-1H-indol-5-yl)-4H-1,2,4-triazol-3-yl]thio}propyl)-7-(methylsulfonyl)-2,3,4,5-tetrahydro-1H-3-benzazepine] | 0.316 to 10
6 | Cc1cc(-c2ccc3c(c2)CCN(CCCSc2nnc(-c4ccc5cnccc5n4)n2C)CC3)no1 [Example 146, 7-(5-methyl-3-isoxazolyl)-3-(3-{[4-methyl-5-(1,6-naphthyridin-2-yl)-4H-1,2,4-triazol-3-yl]thio}propyl)-2,3,4,5-tetrahydro-1H-3-benzazepine] | 0.316 to 10
7 | CCn1c(SCCCN2CCc3ccc(-c4ncc(C)o4)cc3CC2)nnc1-c1ccc2ncccc2c1 [Example 169, 3-(3-{[4-ethyl-5-(6-quinolinyl)-4H-1,2,4-triazol-3-yl]thio}propyl)-7-(5-methyl-1,3-oxazol-2-yl)-2,3,4,5-tetrahydro-1H-3-benzazepine] | 0.316 to 10
8 | CCS(=O)(=O)c1ccc2c(c1)CCN(CCCSc1nnc(-c3cccc4ccoc34)n1C)CC2 [Example 100, 3-(3-{[5-(1-benzofuran-7-yl)-4-methyl-4H-1,2,4-triazol-3-yl]thio}propyl)-7-(ethylsulfonyl)-2,3,4,5-tetrahydro-1H-3-benzazepine] | 0.316 to 10
9 | Cn1c(SCCCN2CCc3ccc(S(=O)(=O)c4ccccc4)cc3CC2)nnc1-c1ccc(F)cc1F [Example 67, 3-(3-{[5-(2,4-difluorophenyl)-4-methyl-4H-1,2,4-triazol-3-yl]thio}propyl)-7-(phenylsulfonyl)-2,3,4,5-tetrahydro-1H-3-benzazepine] | 0.316 to 10
10 | Cc1cc(-c2ccc3c(c2)CCN(CCCSc2nnc(-c4ccc(F)c5ncccc45)n2C)CC3)no1 [Example 135, 3-(3-{[5-(8-fluoro-5-quinolinyl)-4-methyl-4H-1,2,4-triazol-3-yl]thio}propyl)-7-(5-methyl-3-isoxazolyl)-2,3,4,5-tetrahydro-1H-3-benzazepine] | 0.316 to 10
11 | Cn1c(SCCCN2CCc3ccc(S(C)(=O)=O)cc3CC2)nnc1-c1cc2ccccc2[nH]1 [Example 72, 3-(3-{[5-(1H-indol-2-yl)-4-methyl-4H-1,2,4-triazol-3-yl]thio}propyl)-7-(methylsulfonyl)-2,3,4,5-tetrahydro-1H-3-benzazepine] | 0.316 to 10
12 | CCS(=O)(=O)c1ccc2c(c1)CCN(CCCSc1nnc(-c3cc4ccccc4n3C)n1C)CC2 [Example 99, 7-(ethylsulfonyl)-3-(3-{[4-methyl-5-(1-methyl-1H-indol-2-yl)-4H-1,2,4-triazol-3-yl]thio}propyl)-2,3,4,5-tetrahydro-1H-3-benzazepine] | 0.316 to 10
13 | Cc1cc(-c2ccc3c(c2)CCN(CCCSc2nnc(-c4ccc5ncccc5c4)n2C)CC3)on1 [Example 126, 7-(3-methyl-5-isoxazolyl)-3-(3-{[4-methyl-5-(6-quinolinyl)-4H-1,2,4-triazol-3-yl]thio}propyl)-2,3,4,5-tetrahydro-1H-3-benzazepine] | 0.316 to 10
14 | Cn1c(SCCCN2CCc3ccc(OS(C)(=O)=O)cc3CC2)nnc1-c1ccc2ncccc2c1 [Example 13, 3-(3-{[4-methyl-5-(6-quinolinyl)-4H-1,2,4-triazol-3-yl]thio}propyl)-2,3,4,5-tetrahydro-1H-3-benzazepin-7-yl methanesulfonate] | 0.316 to 10
15 | Cn1c(SCCCN2CCc3ccc(OS(C)(=O)=O)cc3CC2)nnc1-c1cccs1 [Example 8, 3-(3-{[4-methyl-5-(2-thienyl)-4H-1,2,4-triazol-3-yl]thio}propyl)-2,3,4,5-tetrahydro-1H-3-benzazepin-7-yl methanesulfonate] | 0.316 to 10
16 | Cn1c(SCCCN2CCc3ccc(OS(C)(=O)=O)cc3CC2)nnc1-c1ccccc1 [Example 1, 3-{3-[(4-methyl-5-phenyl-4H-1,2,4-triazol-3-yl)thio]propyl}-2,3,4,5-tetrahydro-1H-3-benzazepin-7-yl methanesulfonate] | 0.316 to 10
17 | Cn1c(SCCCN2CCc3ccc(OS(C)(=O)=O)cc3CC2)nnc1-c1ccc(F)cc1 [Example 14, 3-(3-{[5-(4-fluorophenyl)-4-methyl-4H-1,2,4-triazol-3-yl]thio}propyl)-2,3,4,5-tetrahydro-1H-3-benzazepin-7-yl methanesulfonate] | 0.316 to 10
18 | Cn1c(SCCCN2CCc3ccc(S(=O)(=O)N4CCOCC4)cc3CC2)nnc1-c1ccc2ncccc2c1 [Example 51, 3-(3-{[4-methyl-5-(6-quinolinyl)-4H-1,2,4-triazol-3-yl]thio}propyl)-7-(4-morpholinylsulfonyl)-2,3,4,5-tetrahydro-1H-3-benzazepine] | 0.316 to 10
19 | CS(=O)(=O)c1ccc2c(c1)CCN(CCCSc1nc(-c3ccccc3)c(-c3ccccc3)[nH]1)CC2 [Example 5, 3-{3-[(4,5-diphenyl-1H-imidazol-2-yl)thio]propyl}-7-(methylsulfonyl)-2,3,4,5-tetrahydro-1H-3-benzazepine] | 0.316 to 10
20 | CCS(=O)(=O)c1ccc2c(c1)CCN(CCCSc1nnc(-c3cccc4occc34)n1C)CC2 [Example 96, 3-(3-{[5-(1-benzofuran-4-yl)-4-methyl-4H-1,2,4-triazol-3-yl]thio}propyl)-7-(ethylsulfonyl)-2,3,4,5-tetrahydro-1H-3-benzazepine] | 0.316 to 10
21 | Cc1cc(-c2ccc3c(c2)CCN(CCCSc2nnc(-c4ccc5ncccc5c4)n2C)CC3)no1 [Example 63, 7-(5-methyl-3-isoxazolyl)-3-(3-{[4-methyl-5-(6-quinolinyl)-4H-1,2,4-triazol-3-yl]thio}propyl)-2,3,4,5-tetrahydro-1H-3-benzazepine] | 0.316 to 10
22 | Cc1ccc2cc(-c3nnc(CCCCN4CCc5ccc(-c6cc(C)on6)cc5CC4)n3C)ccc2n1 [Example 173, 7-(5-Methyl-3-isoxazolyl)-3-{4-[4-methyl-5-(2-methyl-6-quinolinyl)-4H-1,2,4-triazol-3-yl]butyl}-2,3,4,5-tetrahydro-1H-3-benzazepine hydrochloride] | 0.316 to 10
